The structures appear in SMILES notation. In brackets after ≈: the same amount, converted by molar mass. Like-named read-outs stand apart in the source and are kept apart here. *1 amine or outer side, *2 acyl side, *3 side chain or, on linkers, in order; H or OH if unused. Where a SMILES comes first, the peptide text is derived from it. Bridges are numbered along the chain shown (N, C = ends). [ ]: non-standard residue; d: D form. The star is where a group is joined. Phe(3,5-F2) = N[C@@H](Cc1cc(F)cc(F)c1)C(=O)O; NHPh(4-CF3) = FC(F)(F)c1ccc(N*)cc1; Heptenoyl(2E) = CCCC/C=C/C(=O)*; aThr = C[C@H](O)[C@H](N)C(=O)O; Pip = O=C(O)[C@@H]1CCCCN1; CO = O=C([*:1])[*:2]

One data set relates to S. pneumoniae R6. The data set can be described thus: Minimal inhibitory concentration, microbroth dilution. Format: cell-based. The gist of the method: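 Twofold serial dilutions in broth per CLSI M7-A7 microbroth dilution, incubated aerobically overnight at 37° C. MIC read visually as lowest concentration preventing bacterial growth.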
A general note: In broth dilution the organism is exposed to a series of concentrations in liquid medium.

In the next data set the test system is S. aureus USA 300 ΔClpP. Described as above. The conditions noted are these: ClpP inactivated strain. Format: cell-based, Staphylococcus aureus. In a few lines: (§1)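 MIC is recorded by eye as the lowest drug concentration that stops bacterial growth. Compound is serially diluted twofold in broth, starting at 200 μM final, and bacteria are added at roughly 10^5 cfu/mL. Incubation runs overnight at 37 °C under aerobic conditions, per CLSI guidance.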

The next data set can be described thus: in vitro. To be noted: CD-1, mouse, microsomes, pH 7.4. On the procedure: Compounds were initially prepared by dissolving them into DMSO at a final concentration of 10 mM. NADPH regenerating solutions A and B and mouse liver microsomes (CD-1) were obtained from BD Gentest (Woburn, Mass.). Ninety-six well deep well plates were obtained from MidWest Scientific Inc (Valley Park, Mo.).
Sample preparation for microsomal stability was modified from methods of Di, L., et al., Int J Pharm. 2005 Jun. 13; 297(1-2): 110-9. A set of incubation times of 0, 15, 30, 60, 120, and 240 minutes were used. Mouse liver microsomal solutions were prepared by adding 58 μL of concentrated human or mouse liver microsomes (20 mg/mL protein concentration) to 1.756 mL of 0.1 M potassium phosphate buffer (pH 7.4) and 5 μL of 0.5 M EDTA to make a 0.6381 mg/mL (protein) microsomal solution. NADPH regenerating agent contained 113 μL of NADPH A, 23 μL of NADPH B, and 315 μL of 0.1 M potassium phosphate buffer (pH 7.4). The diluted test compound solutions (2 μL) were each added directly to a 1.79 mL of liver microsomal solution. This solution was mixed and 90 μL was transferred to 6 time points plates (each in triplicate wells). For the time 0 plate, 225 μL of cold acetonitrile with internal standard ([…] warfarin) was added to each well, followed by addition of NADPH regenerating agent (22.5 μL) and no incubation. For other five time points' plate, NADPH regenerating agent (22.5 μL) was added to each well to initiate the reaction. The plates were incubated at 37° C. for the required time, followed by quenching of the reaction by adding 225 μL of cold acetonitrile with internal standard (4 μg/ml warfarin). All of the plates were sealed and mixed well at 600 rpm for 10 minutes followed by centrifugation at 4000 rpm for 20 minutes. The supernatants (120 μL) were transferred to analytical plates for analysis by LCMS. LCMS conditions were described in the materials and instrumentation section above. The metabolic stability is evaluated via the half-life from least-squares fit of the multiple time points based on first-order kinetics.

The target of a further data set is T1, Sa-ClpP (Staphylococcus aureus, UniProt Q2G036).
T1 construct: made in house; host or cells: E. coli BL21 (DE3)
T1 sequence (Q2G036 whole entry): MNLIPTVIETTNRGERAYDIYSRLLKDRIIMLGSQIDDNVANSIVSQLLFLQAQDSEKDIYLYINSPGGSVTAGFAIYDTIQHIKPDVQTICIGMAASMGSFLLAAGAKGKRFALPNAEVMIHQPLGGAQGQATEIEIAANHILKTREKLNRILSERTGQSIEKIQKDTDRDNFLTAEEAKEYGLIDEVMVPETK
The data set can be described thus: ClpP activation, EnzCheck Protease Assay with Bodipy-FL casein (second described method). It is filed as biochemical, S. aureus. The gist of the method: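 Sa-ClpP (2 μM in master mix) with Bodipy-FL casein (2 μM in master mix) in Tris-HCl pH 8.0, 0.01% Triton X-100, compounds in 2% DMSO, triplicate. Fluorescence (ex 485/em 520 nm) followed 30 min; degradation slopes normalized to ADEP4 and DMSO controls, EC50 and % activation by four-parameter fit.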

For a further data set, the system named is S. aureus ATCC 29213. The data set can be described thus: Minimal inhibitory concentration, microbroth dilution. It is filed as cell-based. To be noted: Staphylococcus aureus, ATCC29213, read-out: Minimal Inhibitory Concentration S. aureus ATCC 29213. The gist of the method: as §1
For a further data set, the system named is B. subtilis ATCC 23857. Described as above. It is filed as cell-based. To be noted: Bacillus subtilis, ATCC23857, read-out: Minimal Inhibitory Concentration B. subtilis ATCC 23857. In a few lines: as §1
Another data set concerns E. faecails ATCC 33186. The description is as above. The conditions noted are these: Enterococcus faecalis, ATCC33186, read-out: Minimal Inhibitory Concentration E. faecails ATCC 33186. Format: cell-based. In a few lines:
as §1

[1] abbreviates: Streptococcus pneumoniae, R6; read-out: Minimal Inhibitory Concentration S. pneumoniae R6.
[2] abbreviates: Streptococcus pneumoniae, R6, read-out: Minimal Inhibitory Concentration S. pneumoniae R6.
[3] abbreviates: read-out: ClpP Activation EC50 (converted).

On to `C[C@@H]1NC(=O)[C@@H]2CCCCN2C(=O)[C@@H]2CCCN2C(=O)[C@@H](NC(=O)[C@H](Cc2cc(F)cc(F)c2)NC(=O)Nc2ccc3c(c2)OCO3)[C@H](C)OC(=O)[C@@H]2CCCN2C1=O` [Compound 17, (S)-2-(3-(Benzo[D][1,3]Dioxol-5-Yl)Ureido)-3-(3,5-Difluorophenyl)-N-((6S,8aS,14aS,20S,21 S,23aS)-6,21-Dimethyl-5,8,14,19,23-Pentaoxooctadecahydro-1H,5H,14H,19H-Pyrido[2,1-I]Dipyrrolo[2,1-C:2′,1′-L][1]Oxa[4,7,10,13]Tetraazacyclohexadecin-20-Yl)Propanamide], for which, in the data set with S. pneumoniae R6 (setting [1]), the MIC worked out at 0.8 µM (≈ 0.659 µg/mL). The “Minimal Inhibitory Concentration S. aureus USA 300 ΔClpP” value in the data set with S. aureus USA 300 ΔClpP was 200 µM. The molecule also gave a half-life in the data set “in vitro” of 486 ± 66 min. Besides, it took 720 nM to reach a half-maximal effect at Sa-ClpP (EC50).
In the case of `Cc1ccc(NC(=O)N[C@@H](Cc2cc(F)cc(F)c2)C(=O)N[C@@H]2C(=O)N3CCC[C@H]3C(=O)N3CCCC[C@H]3C(=O)N[C@@H](C)C(=O)N3C[C@@H](C)C[C@H]3C(=O)O[C@H]2C)cc1` [Compound 18, (S)-3-(3,5-Difluorophenyl)-2-(3-(P-Tolyl)Ureido)-N-((2R,6S,8aS,14aS,20S,21S,23aS)-2,6,21-Trimethyl-5,8,14,19,23-Pentaoxooctadecahydro-1H,5H,14H,19H-Pyrido[2,1-I]Dipyrrolo[2,1-C:2′,1′-L][1]Oxa[4,7,10,13]Tetraazacyclohexadecin-20-Yl)Propanamide], the MIC in the data set with S. pneumoniae R6 (setting [2]) is below 0.1 µM; with S. aureus ATCC 29213 it was 0.1 µM (≈ 0.0808 µg/mL); in the data set with B. subtilis ATCC 23857, below 0.1 µM; in the data set on E. faecails ATCC 33186, 0.8 µM (≈ 0.646 µg/mL). Also, the “Minimal Inhibitory Concentration S. aureus USA 300 ΔClpP” value with S. aureus USA 300 ΔClpP is 100 µM. The half-life in “in vitro” was 60 ± 6 min. For the same molecule, the EC50 at Sa-ClpP (setting [3]) was 320 nM.
As to `CCCC/C=C/C(=O)N[C@@H](Cc1cc(F)cc(F)c1)C(=O)N[C@@H]1C(=O)N2CCC[C@H]2C(=O)N2CCCC[C@H]2C(=O)N[C@@H](C)C(=O)N2CCC[C@H]2C(=O)O[C@H]1C` [ADEP 2719, reference compound] ({Heptenoyl(2E)}-[Phe(3,5-F2)][aThr]P[Pip]AP; ester 2-C), in the data set on S. pneumoniae R6 (setting [1]), the MIC is below 0.2 µM. Further, the “Minimal Inhibitory Concentration S. aureus USA 300 ΔClpP” value with S. aureus USA 300 ΔClpP came to 500 µM. In the data set “in vitro”, this molecule showed a half-life of 6 min. For the same molecule, the EC50 at Sa-ClpP (setting [3]) was 380 ± 10 nM.
For `C[C@H]1C[C@H]2C(=O)O[C@@H](C)[C@H](NC(=O)[C@H](Cc3cc(F)cc(F)c3)NC(=O)Nc3ccc4c(c3)OCO4)C(=O)N3CCC[C@H]3C(=O)N3CCCC[C@H]3C(=O)N[C@@H](C)C(=O)N2C1` [Compound 20, (S)-2-(3-(Benzo[D][1,3]Dioxol-5-Yl)Ureido)-3-(3,5-Difluorophenyl)-N-((2R,6S,8aS,14aS,20S,21 S,23aS)-2,6,21-Trimethyl-5,8,14,19,23-Pentaoxooctadecahydro-1H,5H,14H,19H-Pyrido[2,1-I]Dipyrrolo[2,1-C:2′,1′-L][1]Oxa[4,7,10,13]Tetraazacyclohexadecin-20-Yl)Propanamide], the MIC in the data set with S. pneumoniae R6 (setting [1]) was below 0.1 µM. Besides, in the data set with S. aureus USA 300 ΔClpP, the “Minimal Inhibitory Concentration S. aureus USA 300 ΔClpP” value amounted to 200 µM. Besides, in “in vitro”, the half-life was 414 ± 78 min. The same molecule showed an EC50 at Sa-ClpP of 360 nM.
On to `Cc1ccc(NC(=O)N[C@@H](Cc2ccccc2)C(=O)N[C@H]2COC(=O)[C@@H]3C[C@@H](C)CN3C(=O)[C@H](C)NC(=O)[C@@H]3CCCCN3C(=O)[C@@H]3CCCN3C2=O)cc1` [Compound 23, (S)—N-((2R,6S,8aS,14aS,20S,23aS)-2,6-Dimethyl-5,8,14,19,23-Pentaoxooctadecahydro-1H,5H,14H,19H-Pyrido[2,1-I]Dipyrrolo[2,1-C:2′,1′-L][1]Oxa[4,7,10,13]Tetraazacyclohexadecin-20-Yl)-3-Phenyl-2-(3-(P-Tolyl)Ureido)Propanamide], for which the MIC in the data set on S. pneumoniae R6 (setting [2]) was below 0.2 µM; with S. aureus ATCC 29213, 0.4 µM (≈ 0.303 µg/mL); in the data set with B. subtilis ATCC 23857, below 0.2 µM; with E. faecails ATCC 33186, below 0.2 µM. Moreover, the half-life in “in vitro” was 178 ± 18 min. The EC50 at Sa-ClpP (setting [3]) is 500 nM.
Turning to `C[C@H]1C[C@H]2C(=O)O[C@@H](C)[C@H](NC(=O)[C@H](Cc3cc(F)cc(F)c3)NC(=O)Nc3ccc(C(F)(F)F)cc3)C(=O)N3CCC[C@H]3C(=O)N3CCCC[C@H]3C(=O)N[C@@H](C)C(=O)N2C1` [Compound 19, (S)-3-(3,5-Difluorophenyl)-2-(3-(4-(Trifluoromethyl)Phenyl)Ureido)-N-((2R,6S,8aS,14aS,20S,21S,23aS)-2,6,21-Trimethyl-5,8,14,19,23-Pentaoxooctadecahydro-1H,5H,14H,19H-Pyrido[2,1-I]Dipyrrolo[2,1-C:2′,1′-L][1]Oxa[4,7,10,13]Tetraazacyclohexadecin-20-Yl)Propanamide], the MIC with S. pneumoniae R6 (setting [2]) is 0.8 µM (≈ 0.689 µg/mL); with S. aureus ATCC 29213 it was 0.1 µM (≈ 0.0862 µg/mL); in the data set on B. subtilis ATCC 23857 it was below 0.1 µM; in the data set on E. faecails ATCC 33186, 0.39 µM (≈ 0.336 µg/mL). Besides, the “Minimal Inhibitory Concentration S. aureus USA 300 ΔClpP” value with S. aureus USA 300 ΔClpP was determined as 6.2 µM. Moreover, the half-life in “in vitro” was 30 min. The EC50 on Sa-ClpP (setting [3]) was 330 nM.
Turning to `C[C@@H]1NC(=O)[C@@H]2CCCCN2C(=O)[C@@H]2CCCN2C(=O)[C@@H](NC(=O)[C@H](Cc2cc(F)cc(F)c2)NC(=O)Nc2ccc(C(F)(F)F)cc2)[C@H](C)OC(=O)[C@@H]2CCCN2C1=O` [Compound 16, (S)-3-(3,5-Difluorophenyl)-N-((6S,8aS,14aS,20S,21 S,23aS)-6,21-Dimethyl-5,8,14,19,23-Pentaoxooctadecahydro-1H,5H,14H,19H-Pyrido[2,1-I]Dipyrrolo[2,1-C:2′,1′-L][1]Oxa[4,7,10,13]Tetraazacyclohexadecin-20-Yl)-2-(3-(4-(Trifluoromethyl)Phenyl)Ureido)Propanamide] ({NHPh(4-CF3)-CO}-[Phe(3,5-F2)][aThr]P[Pip]AP; ester 2-C), the MIC was 0.8 µM (≈ 0.678 µg/mL) in the data set with S. pneumoniae R6 (setting [2]), 0.4 µM (≈ 0.339 µg/mL) with S. aureus ATCC 29213, 0.4 µM (≈ 0.339 µg/mL) in the data set on B. subtilis ATCC 23857 and below 0.1 µM in the data set on E. faecails ATCC 33186. In addition, the “Minimal Inhibitory Concentration S. aureus USA 300 ΔClpP” value with S. aureus USA 300 ΔClpP stood at 3.1 µM. The half-life in the data set “in vitro” was 42 min. Moreover, on Sa-ClpP (setting [3]), the EC50 was 550 nM.
Turning to `Cc1ccc(NC(=O)N[C@@H](Cc2cc(F)cc(F)c2)C(=O)N[C@@H]2C(=O)N3CCC[C@H]3C(=O)N3CCCC[C@H]3C(=O)N[C@@H](C)C(=O)N3CCC[C@H]3C(=O)O[C@H]2C)cc1` [Compound 15, (S)-3-(3,5-Difluorophenyl)-N-((6S,8aS,14aS,20S,21 S,23aS)-6,21-Dimethyl-5,8,14,19,23-Pentaoxooctadecahydro-1H,5H,14H,19H-Pyrido[2,1-I]Dipyrrolo[2,1-C:2′,1′-L][1]Oxa[4,7,10,13]Tetraazacyclohexadecin-20-Yl)-2-(3-(P-Tolyl)Ureido)Propanamide], the MIC with S. pneumoniae R6 (setting [2]) is 0.3 µM (≈ 0.238 µg/mL); in the data set with S. aureus ATCC 29213, 0.6 µM (≈ 0.476 µg/mL); in the data set with B. subtilis ATCC 23857, below 0.1 µM; with E. faecails ATCC 33186, 0.3 µM (≈ 0.238 µg/mL). Further, in the data set with S. aureus USA 300 ΔClpP, the “Minimal Inhibitory Concentration S. aureus USA 300 ΔClpP” value turned out to be 100 µM. The molecule further showed a half-life in the data set “in vitro” of 18 min. Also, the EC50 on Sa-ClpP (setting [3]) is 700 nM.

One may read the half-life as how long it takes for the measured level to halve. Low values mean rapid decline, high ones slow decline. The EC50 is the concentration needed to bring the measured effect to its halfway point.

These data come from patent US9879050B2, “Substituted urea depsipeptide analogs as activators of the CLPP endopeptidase” (priority 2013, dated 2018).
